Reference: patent US10668081B2, “Prostamide-containing intraocular implant” (Allergan, Inc., priority 2013, dated 2020)

What was measured:
[1] = system: intraocular pressure in dogs; assay: IOP reduction after intracameral administration by infusion pump in dogs; type: in vivo, dog; conditions: for Intracameral Administration (dogs) Max IOP reduction: infusion pump into anterior chamber, 2-3 weeks, vs baseline
From the text: (§1) A series of prostamides were selected as potential candidates for an intracameral biodegradable drug delivery system (e.g., an implant) and tested for their ability to lower IOP by direct administration to the aqueous humor (therefore, by intracameral administration). Table 1 lists the EC50 values (nM) obtained from the feline (cat) iris assay, calculated log P values (clog P), and IOP reduction values obtained after either topical or intracameral administration for different prostamides. Intracameral drug administration was accomplished by placing an infusion pump in the subcutaneous pocket in the neck of dogs with a cannula running into the anterior chamber of the eye. Test runs were carried out to measure and compare the concentration of the compound in the solution exiting the pump with that initially added to the pump in order to confirm the dosing level.

[2] = system: intraocular pressure in dogs; assay: IOP reduction after topical administration to normotensive dogs; type: in vivo, dog; conditions: topical 25 μL, 6 hours after administration
From the text: as §1

[3] = target: Prostamide/FP receptor (Felis catus, UniProt A0ABI7XJ69); assay: Cat iris sphincter assay (contraction of isolated feline iris sphincter muscle); type: cell-based
Chain of Prostamide/FP receptor (A0ABI7XJ69 entry or part of it): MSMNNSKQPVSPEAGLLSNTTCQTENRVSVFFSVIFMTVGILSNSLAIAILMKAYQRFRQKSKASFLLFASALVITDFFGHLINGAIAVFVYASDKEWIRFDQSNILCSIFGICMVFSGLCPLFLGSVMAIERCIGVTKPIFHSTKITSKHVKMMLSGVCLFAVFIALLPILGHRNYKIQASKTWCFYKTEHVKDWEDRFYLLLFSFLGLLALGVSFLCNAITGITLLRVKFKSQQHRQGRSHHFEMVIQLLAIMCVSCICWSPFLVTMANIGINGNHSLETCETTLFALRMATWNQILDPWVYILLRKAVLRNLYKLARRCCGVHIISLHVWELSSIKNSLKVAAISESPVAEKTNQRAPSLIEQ

Structure (SMILES) | Intracameral Administration (dogs) Max IOP reduction ([1]; dose 100 ng/day) | Topical Administration (dogs) IOP reduction ([2]; concentration 0.01% (w/v)) | Intracameral Administration (dogs) Max IOP reduction ([1]; dose 15 ng/day) | EC50 [3] | Topical Administration (dogs) IOP reduction ([2]; concentration 0.03% (w/v)) | IOP reduction when administered intracamerally, compared with bimatoprost (in words) ([1]; normotensive dog eye, directly to the anterior chamber) | Intracameral Administration (dogs) Max IOP reduction ([1]; dose 108 ng/day)
CCCCC[C@@H](/C=C/[C@@H]1[C@@H](C/C=C\CCCC(N)=O)[C@@H](O)C[C@H]1O)OC [Compound 5] | ~20% | −3 to −4 mm Hg | – | – | – | – | –
CCNC(=O)CCC/C=C\C[C@@H]1[C@@H](/C=C/[C@@H](O)CCc2cc(Br)c(C)s2)[C@H](O)C[C@@H]1O [Compound 4] | – | – | <10% | 25 nM | −3 mm Hg | – | –
NC(=O)CCC/C=C\C[C@@H]1[C@@H](/C=C/[C@@H](O)CCc2cc(Cl)sc2Cl)[C@H](O)C[C@@H]1O [Compound 1] | – | – | ~35% | – | −5 mm Hg | reduces IOP effectively and much more efficiently than bimatoprost | –
CCNC(=O)CCC/C=C\C[C@@H]1[C@@H](/C=C/[C@@H](O)CCc2ccccc2)[C@H](O)C[C@@H]1O [Compound 3, Bimatoprost] | – | −3.6 mm Hg | – | – | – | – | ~45%
